From the NIST ThermoML archive (doi:10.1016/j.fluid.2006.09.017)
Numbers after ± are expanded uncertainties.

Details: Liquid

Compound	vapor or sublimation pressure (258.15 K) [kPa]	vapor or sublimation pressure (268.15 K) [kPa]	vapor or sublimation pressure (275.15 K) [kPa]	vapor or sublimation pressure (283.15 K) [kPa]	vapor or sublimation pressure (293.15 K) [kPa]	vapor or sublimation pressure (303.15 K) [kPa]	vapor or sublimation pressure (313.15 K) [kPa]	vapor or sublimation pressure (323.15 K) [kPa]	vapor or sublimation pressure (333.15 K) [kPa]	vapor or sublimation pressure (343.15 K) [kPa]	vapor or sublimation pressure (263.15 K) [kPa]
FCF [difluoromethane]	488.1 ± 15	690.6 ± 22	866.5 ± 27	1107 ± 35	1475 ± 46	1928 ± 60	2478 ± 77	3141 ± 98	3933 ± 120	4877 ± 150	–
FCC(F)(F)F [1,1,1,2-tetrafluoroethane]	163.9 ± 5.9	243.3 ± 7.9	314.6 ± 10	414.6 ± 13	571.7 ± 18	770.2 ± 24	1017 ± 32	1318 ± 41	1682 ± 52	2117 ± 66	200.6 ± 6.8
